Experiment [1] addresses truncated human beta-secretase (residues 1-458, His6-tagged) (Homo sapiens (Human), UniProt P56817). Put plainly: BACE enzyme assay (fluorescence quench, Example 434A). The format is biochemical.
The next experiment has as its target BACE (Homo sapiens (Human), UniProt P56817). Put plainly: BACE cell assay: secreted Aβ 1-40 in H4-APPsw cells (AlphaLISA/ELISA, Example 434B). Particulars: in vitro cell activity, Aβ 1-40 in culture media after overnight treatment. In kind it is cell-based. For orientation: Bead proximity is the source of the signal in Alpha formats.

Each structure is given as a SMILES string.

truncated human beta-secretase (residues 1-458, His6-tagged), sequence (P56817 22-458): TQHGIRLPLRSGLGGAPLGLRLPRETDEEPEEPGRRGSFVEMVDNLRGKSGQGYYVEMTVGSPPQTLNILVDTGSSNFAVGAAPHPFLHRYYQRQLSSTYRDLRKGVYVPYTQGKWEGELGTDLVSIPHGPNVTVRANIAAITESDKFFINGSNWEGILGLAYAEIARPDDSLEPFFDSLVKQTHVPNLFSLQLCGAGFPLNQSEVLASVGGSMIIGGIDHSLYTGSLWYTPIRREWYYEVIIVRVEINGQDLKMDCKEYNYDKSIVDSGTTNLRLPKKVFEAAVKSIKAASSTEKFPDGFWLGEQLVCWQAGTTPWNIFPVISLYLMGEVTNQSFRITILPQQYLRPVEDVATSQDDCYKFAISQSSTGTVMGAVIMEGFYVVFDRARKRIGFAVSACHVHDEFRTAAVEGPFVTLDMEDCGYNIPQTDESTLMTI
BACE, sequence (P56817 46-501 limits assumed): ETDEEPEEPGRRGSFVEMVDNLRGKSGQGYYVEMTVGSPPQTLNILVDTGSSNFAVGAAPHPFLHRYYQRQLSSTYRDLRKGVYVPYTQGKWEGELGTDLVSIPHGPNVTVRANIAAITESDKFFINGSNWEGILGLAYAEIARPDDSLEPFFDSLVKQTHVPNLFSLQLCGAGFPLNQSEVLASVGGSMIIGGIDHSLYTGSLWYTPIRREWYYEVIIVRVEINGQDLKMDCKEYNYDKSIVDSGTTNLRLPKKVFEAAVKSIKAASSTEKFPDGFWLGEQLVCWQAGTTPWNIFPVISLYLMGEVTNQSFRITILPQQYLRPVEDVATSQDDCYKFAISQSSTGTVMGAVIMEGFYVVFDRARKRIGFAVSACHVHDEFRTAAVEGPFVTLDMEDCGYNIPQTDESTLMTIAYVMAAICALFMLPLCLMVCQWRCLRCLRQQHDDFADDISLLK

Turning to `CN1OC2(N=C1N)c1ccccc1CC21CCc2ccccc2CC1` (centres unmarked) [Compound 35], half-maximal inhibition in experiment [1] (IC50) required 105 nM. For the compound `CCOC1CCC2(CC1)Cc1ccc(-c3cccc(C#N)c3)cc1C21N=C(N)N(C)O1` (centres unmarked) [Compound 49], the concentration for half-maximal inhibition (IC50) (usually the concentration at which inhibition is half-maximal) at BACE is under 1000 nM.

These data come from patent publication US10336717B2, “Inhibitors of beta-secretase” (Vitae Pharmaceuticals, Inc., priority 2009, dated 2019).
